In brackets after ≈: the same amount, converted by molar mass.
Legend:
[1] = biological target: E. coli RNA polymerase σ70 holoenzyme (Escherichia coli (strain K12), UniProt P0A8T7+P0A8V2); experiment: Fluorescence-detected assay of inhibition of Escherichia coli RNA polymerase; format: biochemical; conditions: T4 N25 promoter DNA, RiboGreen fluorescence, read-out: RNAP-inhibitory activity E. coli RNAP IC50
Method: (§1) Fluorescence-detected RNA polymerase assays with E. coli RNA polymerase were performed by a modification of the procedure of Kuhlman et al., 2004 [Kuhlman, P., Duff, H. & Galant, A. (2004) A fluorescence-based assay for multisubunit DNA-dependent RNA polymerases. Anal. Biochem. 324, 183-190]. Reaction mixtures contained […]: […] test salt, 75 nM E. coli RNA polymerase σ^70 holoenzyme, 20 nM 384 bp DNA fragment containing the bacteriophage T4 N25 promoter, 100 μM ATP, 100 μM GTP, 100 μM UTP, 100 μM CTP, 50 mM Tris-HCl, pH 8.0, 100 mM KCl, 10 mM MgCl2, 1 mM DTT, 10 μg/ml bovine serum albumin, and 5.5% glycerol. Reaction components other than DNA and NTPs were pre-incubated for 10 min at 37° C. Reactions were carried out by addition of DNA and incubation for 5 min at 37° C., followed by addition of NTPs and incubation for 60 min at 37° C. DNA was removed by addition of 1 μl 5 mM CaCl2 and 2 U DNaseI (Ambion, Inc.), followed by incubation for 90 min at 37° C. RNA was quantified by addition of 100 μI RiboGreen RNA Quantitation Reagent (Invitrogen, Inc.; 1:500 dilution in Tris-HCl, pH 8.0, 1 mM EDTA), followed by incubation for 10 min at 25° C., followed by measurement of fluorescence intensity [excitation wavelength=485 nm and emission wavelength=535 nm; QuantaMaster QM1 spectrofluorometer (PTI, Inc.)]. IC50 is defined as the concentration of inhibitor resulting in 50% inhibition of RNA polymerase activity.

[2] = test system: methicillin-resistant Staphylococcus aureus (MRSA) strain BAA-1707 (USA-400, MW2); experiment: Antibacterial efficacy in mouse model of Staphylococcus aureus systemic infection (peritonitis model); conditions: female Swiss Webster mice, intravenous injection 0 h post-infection, dose resulting in 50% survival at 72 h (probit), read-out: in vivo antibacterial activity mouse MRSA peritonitis ED50
Method: Female Swiss Webster mice ([…]) were experimentally infected by intraperitoneal administration of 1×10^7 colony forming units of methicillin-resistant Staphylococcus aureus (MRSA) strain BAA-1707 (USA-400, MW2) in 5% hog gastric mucin. Test compounds in vehicle (5% dimethylacetamide and 4% cremophor EL in 10 mM sodium phosphate, pH 8), positive control (linezolid in vehicle), and negative control (vehicle only), were administered by intravenous injection into a tail vein (200 μl) 0 h post-infection. Identities of test compounds and controls were blinded from personnel performing injections and monitoring survival. The protective dose 50 (PD50) was defined as the test-compound dose resulting in 50% survival at 72 h (calculated using the probit method).

[3] = biological target: S. aureus RNA polymerase core enzyme + S. aureus σA (Staphylococcus aureus (strain NCTC 8325 / PS 47), UniProt P47768+Q2G0N5); experiment: Fluorescence-detected assay of inhibition of Staphylococcus aureus RNA polymerase; format: biochemical; conditions: T4 N25 promoter DNA, RiboGreen fluorescence, read-out: RNAP-inhibitory activity S. aureus RNAP IC50
Method: as §1
Fluorescence-detected RNA polymerase assays with S. aureus RNA polymerase were performed as in Example 2.1, using reaction mixtures containing (20 μl): 0-100 nM test salt, 75 nM S. aureus RNA polymerase core enzyme, 300 nM S. aureus σ^A, 20 nM 384 bp DNA fragment containing the bacteriophage T4 N25 promoter, 100 μM ATP, 100 μM GTP, 100 μM UTP, 100 μM CTP, 40 mM Tris-HCl, pH 8.0, 80 mM NaCl, 5 mM MgCl2, 2.5 mM DTT, and 12.7% glycerol. IC50 is defined as the concentration of inhibitor resulting in 50% inhibition of RNA polymerase activity.

[4] = test system: Staphylococcus aureus ATCC 12600; experiment: Inhibition of growth of Staphylococcus aureus (spiral gradient endpoint MIC assay); format: cell-based; conditions: ATCC12600, Mueller-Hinton II cation-adjusted agar, 16 h at 37° C., read-out: in vitro antibacterial activity S. aureus ATCC12600 MIC
From the text: Minimum inhibitory concentrations (MICs for Staphylococcus aureus ATCC 12600 were quantified using spiral gradient endpoint assays, essentially as described [Wallace, A. and Corkill, J. (1989) Application of the spiral plating method to study antimicrobial action. J. Microbiol. Meths. 10, 303-310; Paton, J., Holt, A., and Bywater, M. (1990) Measurement of MICs of antibacterial agents by spiral gradient endpoint compared with conventional dilution methods. Int. I Exp. Clin. Chemother. 3, 31-38; Schalkowsky S. (1994) Measures of susceptibility from a spiral gradient of drug concentrations. Adv. Exp. Med. Biol. 349, 107-120]. Assays employed exponential-gradient plates containing 150 mm×4 mm Mueller-Hinton II cation-adjusted agar and 0.4-100 μg/ml of test salt. Plates were prepared using an Autoplate 4000 spiral plater (Spiral Biotech, Inc.). Saturated overnight cultures were swabbed radially onto plates, and plates were incubated for 16 h at 37° C. For each culture, the streak length was measured using a clear plastic template (Spiral Biotech, Inc.), the test-salt concentration at the streak endpoint was calculated using the program SGE (Spiral Biotech, Inc.), and the MIC was defined as the calculated test-salt concentration at the streak endpoint.

| SMILES | IC50 [1] [µM] | ED50 [2] [mg/kg] | IC50 [3] [µM] | MIC [4] [µg/mL] |
| --- | --- | --- | --- | --- |
| O=C(NCCc1ccc(Oc2ccccc2)cc1)c1c(O)cc(O)cc1O [Compound 0MTK148, 2,4,6-trihydroxy-N-(4-phenoxyphenethyl)benzamide] | 0.8 | 2.5 | 3.9 | 19 (≈ 52 µM) |
| O=C(NCCc1ccc(C(F)(F)F)cc1C(F)(F)F)c1c(O)cc(O)cc1O [Compound 0MTK208, N-(2,4-bis(trifluoromethyl)phenethyl)-2,4,6-trihydroxybenzamide] | 7.2 | – | 5 | 11 (≈ 26.9 µM) |
| O=C(NCCc1ccc(Cl)cc1)c1c(O)c(Cl)c(O)c(Cl)c1O [Compound 0MTK221, 3,5-dichloro-N-(4-chlorophenethyl)-2,4,6-trihydroxybenzamide] | 14 | – | 98 | > 40 |
| O=C(NCCc1ccc(Cl)cc1)c1c(O)cc(O)c(Cl)c1O [Compound 0MTK222, 3-chloro-N-(4-chlorophenethyl)-2,4,6-trihydroxybenzamide] | 6.8 | – | 9 | > 40 |
| O=C(NCCc1ccc(C(F)(F)F)cc1)c1c(O)cc(O)c(Cl)c1O [Compound 0MTK223, 3-chloro-2,4,6-trihydroxy-N-(4-(trifluoromethyl)phenethyl)benzamide] | 6.6 | – | 10 | > 40 |
| O=C(NCCc1ccc(C(F)(F)F)cc1)c1c(O)c(Cl)c(O)c(Cl)c1O [Compound 0MTK224, 3,5-dichloro-2,4,6-trihydroxy-N-(4-(trifluoromethyl)phenethyl)benzamide] | 25 | – | > 100 | > 40 |
| O=C(NCCc1ccc(Oc2ccccc2)cc1)c1c(O)c(Cl)c(O)c(Cl)c1O [Compound 0MTK230, 3,5-dichloro-2,4,6-trihydroxy-N-(4-phenoxyphenethyl)benzamide] | 7.7 | – | 35 | > 40 |
| O=C(NCCc1ccc(Oc2ccc(F)cc2)cc1)c1c(O)c(Cl)c(O)c(Cl)c1O [Compound 0MTK231, 3,5-dichloro-N-(4-(4-fluorophenoxy)phenethyl)-2,4,6-trihydroxybenzamide] | 8.4 | – | 31 | 33 (≈ 73 µM) |
| O=C(NCCc1ccc(Oc2ccc(Cl)cc2)cc1)c1c(O)cc(O)c(Cl)c1O [Compound 0MTK232, 3-chloro-N-(4-(4-chlorophenoxy)phenethyl)-2,4,6-trihydroxybenzamide] | 0.72 | – | 8 | 20 (≈ 46.1 µM) |
| O=C(NCCc1ccc(Oc2ccc(Cl)cc2)cc1)c1c(O)c(Cl)c(O)c(Cl)c1O [Compound 0MTK233, 3,5-dichloro-N-(4-(4-chlorophenoxy)phenethyl)-2,4,6-trihydroxybenzamide] | 4.5 | – | 23 | 6.8 (≈ 14.5 µM) |
| O=C(NCCc1ccc(Oc2cc(Cl)cc(Cl)c2)cc1)c1c(O)cc(O)c(Cl)c1O [Compound 0MTK237, 3-chloro-N-(4-(3,5-dichlorophenoxy)phenethyl)-2,4,6-trihydroxybenzamide] | 0.31 | – | 3 | 15 (≈ 32 µM) |
| O=C(NCCc1ccc(Oc2cc(Cl)cc(Cl)c2)cc1)c1c(O)c(Cl)c(O)c(Cl)c1O [Compound 0MTK238, 3,5-dichloro-N-(4-(3,5-dichlorophenoxy)phenethyl)-2,4,6-trihydroxybenzamide] | 0.77 | – | 3 | 3.2 (≈ 6.36 µM) |
| O=C(NCCc1ccc(Oc2ccc(F)cc2)cc1)c1c(O)cc(O)c(Cl)c1O [Compound 0MTK240, 3-chloro-N-(4-(4-fluorophenoxy)phenethyl)-2,4,6-trihydroxybenzamide] | 2.1 | – | 15 | > 40 |
| O=C(NCCc1ccc(Oc2cccc(Cl)c2)cc1)c1c(O)cc(O)cc1O [Compound 0MTK256, N-(4-(3-chlorophenoxy)phenethyl)-2,4,6-trihydroxybenzamide] | 0.65 | – | 10 | 9.1 (≈ 22.8 µM) |
| Cc1ccc(Oc2ccc(CCNC(=O)c3c(O)cc(O)cc3O)cc2)cc1 [Compound 0MTK257, 2,4,6-trihydroxy-N-(4-(p-tolyloxy)phenethyl)benzamide] | 0.8 | – | 11 | 20 (≈ 52.7 µM) |
| CCC1=C(O)C(CC)(CC)C(=O)C(C(=O)NCCc2ccc(Oc3ccc(F)cc3)cc2)=C1O [Compound 3RKHTK161, 3,5,5-triethyl-N-(4-(4-fluorophenoxy)phenethyl)-2,4-dihydroxy-6-oxocyclohexa-1,3-dienecarboxamide] | 3.3 | – | 13 | 2.8 (≈ 5.99 µM) |

Source: patent publication US11572337B2, “Antibacterial agents: arylalkylcarboxamido phloroglucinols” (Rutgers, The State University of New Jersey, priority 2018, dated 2023)
